Measurements reported in patent publication US20020022594A1, “Bax fragment induced tumor cell death” (priority 2000, published 2002).
Where a SMILES comes first, the peptide text is derived from it. [ ]: non-standard residue; d: D form. The star is where a group is joined. Nle = CCCC[C@H](N)C(=O)O; Cbz = O=C(OCc1ccccc1)*; CH2F = FC*

Columns and labels:
[1] = test system: cell-free Bax cleavage activity (calpain-like) in whole cell extract of VP-16-treated Jurkat T cells; experiment: Cell-free Bax cleavage assay with protease inhibitors; type: biochemical, human; conditions: 35S-labeled Bax, 2 hours
Procedure: Briefly, the ^35S-labeled Bax protein (1 μl) was incubated with 100 μg of a whole cell extract or a cytosol or mitochondrial fraction in an assay buffer (10 mM HEPES, pH 7.4, 5 mM MgCl2, 5 mM CaCl2, and 1 mM DTT), supplemented with ATP-regenerating system (0.1 mg/ml creatine kinase, 100 mM creatine phosphate, and 5 mM ATP) for 2 hours at 37° C. […] For inhibitor studies, 10 μM of calpain inhibitor-1 (LLnL), 10 μM of calpain inhibitor-2 (LLM), 20 μM of pan-caspase inhibitor Z-VAD-FMK, 20 μM of caspase-3 inhibitor Ac-DEVD-CMK, or 20 μM of the specific proteasome inhibitor castolactacystin, lactone was added in the Bax cleavage system.

[2] = test system: Neo cells (Jurkat T cells transfected with vector alone); experiment: VP-16 treatment of Neo (vector) Jurkat T cells; type: cell-based, human; conditions: VP-16 50 μM
Procedure: (§1) MCF-7, Jurkat T. Neo and Bcl-2 cells were cultured in RPMI 1640 supplemented with 10% fetal calf serum, 100 units/ml of penicillin and 100 μg/ml of streptomycin at 37° C. in a humidified atmosphere consisting of 5% CO2 and 95% air. […] For the experiment using a specific calpain inhibitor, Jurkat T cells were pretreated for 1 hour with calpeptin at 10 μM, followed by a co-incubation with 50 μM of VP-16, as indicated in figure legends.
(§2) The resulting supernatant was then centrifuged at 14,000×g for 30 minutes, followed by collection of both the supernatant and pellet fractions. […] The supernatant was further centrifuged at 600,000×g for 30 minutes and the resulting supernatant was collected as the cytosol fraction. To prepare a whole cell extract, cells were lysed in the lysis buffer, and the lysate was centrifuged at 14,000×g for 30 minutes.
Briefly, the ^35S-labeled Bax protein (1 μl) was incubated with 100 μg of a whole cell extract or a cytosol or mitochondrial fraction in an assay buffer (10 mM HEPES, pH 7.4, 5 mM MgCl2, 5 mM CaCl2, and 1 mM DTT), supplemented with ATP-regenerating system (0.1 mg/ml creatine kinase, 100 mM creatine phosphate, and 5 mM ATP) for 2 hours at 37° C. […]

[3] = test system: Jurkat T cells; experiment: Apoptotic execution in drug-treated Jurkat T cells (caspase-3 processing, PARP cleavage, DNA fragmentation, TUNEL)
[4] = test system: Jurkat T cells; experiment: Cell-free Bax cleavage activity in whole cell lysates of drug-treated Jurkat T cells; conditions: VP-16 50 μM; absent in untreated cells
[5] = test system: Jurkat T cells; experiment: Cytochrome c release from mitochondria to cytosol in drug-treated Jurkat T cells; type: cell-based, human
Procedure: as §2
(§3) The primary antibodies used were: monoclonal B9anti-Bax antibody (Santa Cruz Biotechnology, Santa Cruz, Calif.) at 1:500, monoclonal 6A7 anti-Bax antibody (Pharmingen, San Diego, Calif.) at 1:500, monoclonal anti-Bcl-2 antibody (Dako, Glostrup, Denmark) at 1:500, monoclonal anti-caspase-3 antibody (Onocogene, Cambridge, Mass.) at 1:200, monoclonal anti-cytochrome C antibody (Pharmingen) at 1:500, polyclonal anti-PARP antibody (Boehringer Manheim, Indianapolis, Ind.) at 1:3000, monoclonal anti-cytochrome oxidase unit 11 (COX) antibody (Molecular Probes, Eugene, Oreg.) at 1:200, and monoclonal anti-calpain 30 kDa subunit antibody (Chemicon, Temecula, Calif.) at 1:500.

[6] = test system: Jurkat T cells; conditions: VP-16 50 μM
[7] = test system: Bcl-2 cells (Jurkat T cells overexpressing Bcl-2); experiment: VP-16 treatment of Bcl-2 overexpressing Jurkat T cells; conditions: VP-16 50 μM
[8] = test system: Jurkat T cells; experiment: Calpeptin pre- and co-treatment of VP-16-treated Jurkat T cells; type: cell-based, human
Procedure: as §1, §2, §3

[9] = test system: Jurkat T cells; experiment: Transient transfection of Bax/p18 or Bax/p21 cDNA in Jurkat T cells; type: cell-based, human; conditions: 48 hours after cDNA transfection
Procedure: as §2
(§4) Bax/p18 cDNA was amplified by PCR with human Bax-α-cDNA as template using primer 5′-[…] (forward) and 5′-[…] (reverse) (Wood et al., 1998) and cloned into pcDNA3.0 between Hind III and Xho I restriction enzyme sites. Bax/p18 cDNA was verified by sequencing. MCF-7, Jurkat T. Neo and BcI-2 cells were transfected with pcDNA3.0 vector alone or pcDNA3.0 vector containing Bax/p18 or Bax/p21 cDNA using GenePORTER Transfection Reagent (Gene Therapy Systems, San Diego, Calif.) according to the manufacture's instructions. Briefly, 3 μg of plasmid DNA in 500 μl of RPMI 1640 medium was incubated for 30 minutes at room temperature with 25 μl of GenePORTER reagent in 500 μl of RPMI 1640 medium. The resultant GenePORTER-plasmid DNA mixture (1 ml) was then added into cells 2×10^6 cells in a well of a 6-well plate, followed by 5 hours incubation at 37° C. in a humidified atmosphere consisting of 5% CO2. After that, 1 ml of RPMI 1640 medium containing 20% fetal calf serum was added and the cells were further incubated for additional 43 hours before harvest. […]

[10] = target: T1, Bcl-2 (Homo sapiens, UniProt P10415); experiment: Immunoprecipitation-Western blot assay of interaction with Bcl-2 in mitochondrial fraction; type: binding; conditions: mitochondrial fraction of Jurkat T cells untreated or treated with VP-16 for 12 hours
T1 construct: the mitochondria fraction (500 μg of protein) from VP-16-treated or untreated Jurkat T cells; endogenous in cells; host or cells: Jurkat T cells, untreated or treated with VP-16 for 12 hours; mitochondrial membrane-enriched fraction
Procedure: Immunoprecipitation assay was performed as described previously (Fattman et al., 1997). Briefly, the mitochondria fraction (500 μg of protein) from VP-16-treated or untreated Jurkat T cells was incubated with a 5 μg of a monoclonal anti-human Bcl-2 antibody overnight at 4° C. The protein-antibody complex was then precipitated by incubating with 2 μl of Protein G plus Protein A agarose (Oncogene) for 1 hour at 4° C. and centrifuging at 2000×g at 4° C. for 1 hour. Both the precipitate and supernatant fractions were then analyzed by immunoblotting using the monoclonal B9 anti-human Bax antibody.

[11] = test system: human breast cancer MCF-7; experiment: Transient transfection of Bax/p18 or Bax/p21 cDNA in MCF-7 cells; type: cell-based
Procedure: as §2
as §4, with “CO2.” for “CO2. After that, 1 ml of RPMI 1640 medium containing 20% fetal calf serum was added and the cells were further incubated for additional 43 hours before harvest.”

[12] = calpeptin 10 μM pre- and co-treatment, VP-16 50 μM

T1 sequence (P10415 whole entry): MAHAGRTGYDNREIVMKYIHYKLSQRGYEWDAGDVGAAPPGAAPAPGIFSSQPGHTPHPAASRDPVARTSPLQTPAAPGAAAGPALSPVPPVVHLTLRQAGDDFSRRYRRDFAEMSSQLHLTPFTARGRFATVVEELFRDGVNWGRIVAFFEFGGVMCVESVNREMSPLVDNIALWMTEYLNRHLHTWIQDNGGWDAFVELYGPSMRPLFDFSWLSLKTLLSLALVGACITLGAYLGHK

Q: `CC(=O)N[C@@H](CC(=O)O)C(=O)N[C@@H](CCC(=O)O)C(=O)N[C@H](C(=O)N[C@@H](CC(=O)O)C(=O)CCl)C(C)C` [Ac-DEVD-CMK] was tested. Which “inhibition of cell-free Bax cleavage activity” value ([1]; inhibitor 20 μM) did it give?
A: Its value is “partially inhibited”.

Q: `CSCC[C@@H](C=O)NC(=O)[C@H](CC(C)C)NC(=O)[C@H](CC(C)C)NC(C)=O` [LLM, calpain inhibitor KK] (Ac-Leu-Leu-Met-aldehyde) was tested. Which “inhibition of cell-free Bax cleavage activity” value ([1]; inhibitor 10 μM) did it give?
A: Its value is “completely inhibited”.

Q: With `CCCC[C@@H](C=O)NC(=O)[C@H](CC(C)C)NC(=O)[C@H](CC(C)C)NC(C)=O` [LLnL, calpain inhibitor I] (Ac-Leu-Leu-[Nle]-aldehyde) as the molecule, how does the “inhibition of cell-free Bax cleavage activity” value ([1]; inhibitor 10 μM) read?
A: The value was “completely inhibited”.

Q: Which results are given for `COc1cc([C@@H]2c3cc4c(cc3[C@@H](O[C@@H]3O[C@@H]5CO[C@@H](C)O[C@H]5[C@H](O)[C@H]3O)[C@H]3COC(=O)[C@H]23)OCO4)cc(OC)c1O` [VP-16, Etoposide]?
A: earliest time of appearance of Bax/p18 and p36 bands [2]: 3 h; treatment time at which apoptosis was induced (caspase-3 processing, PARP cleavage) [2]: ≥ 6 h; time at which apoptotic execution phase began (caspase-3 processing/activation, PARP cleavage, DNA fragmentation) ([3]; VP-16 50 μM): 6 h; treatment time at which cell-free Bax cleavage activity is present in cell extract [4]: ≥ 3 h; treatment time after which cytosolic cytochrome c appeared ([5]; VP-16 50 μM): 3 h; earliest time of Bax cleavage (Bax/p18 and p36 bands, B9 antibody) [6]: 3 h; time at which autolysis of the calpain 30 kDa subunit began [6]: 3 h; delay of appearance of Bax/p18 and p36 bands versus Neo cells [7]: 9 h; delay of detection of cell-free Bax cleavage activity versus Neo cells [7]: 9 h; time after which caspase-3 processing and PARP cleavage were observed [7]: 24 h; time after which release of cytochrome c was detected [7]: 12 h; time of appearance of Bax/p18 and p36 bands [7]: 12 h; time of autolysis of calpain 30 kDa subunit (delayed from 3 hours in Neo cells) [7]: 12 h

Q: Which “inhibition of cell-free Bax cleavage activity” value ([1]; inhibitor 20 μM) does the source give for `COC(=O)C[C@H](NC(=O)[C@H](C)NC(=O)[C@@H](NC(=O)OCc1ccccc1)C(C)C)C(=O)CF` [Z-VAD-FMK] (Cbz-Val-Ala-Asp(OMe)-CH2F) here?
A: The value was “partially inhibited”.

Q: Which results are given for `CCCC[C@@H](C=O)NC(=O)[C@H](CC(C)C)NC(=O)OCc1ccccc1` [calpeptin, Calpeptin]?
A: effect on VP-16-induced Bax cleavage [8, 12]: delay; effect on VP-16-induced release of cytochrome c from mitochondria to the cytosol [8, 12]: delay; time of VP-16-induced caspase-3 processing and PARP cleavage with calpeptin (delayed from 6 hours) [8, 12]: 24 h; time of autolysis of the 30 kDa small subunit of calpain with calpeptin (delayed from 3 hours) [8, 12]: 24 h; apoptosis induction by the inhibitor itself ([8]; calpeptin 10 μM, 1 hour pretreatment, no VP-16): did not induce apoptosis; inhibition of PARP cleavage at 24 hours ([8]; fresh calpeptin added at 18 hours after VP-16 treatment): complete inhibition

Q: What does the source list for `CN[C@@H]1C[C@H]2O[C@@](C)([C@@H]1OC)n1c3ccccc3c3c4c(c5c6ccccc6n2c5c31)C(=O)NC4` [staurosporin]?
A: time at which caspase-3 processing/activation, PARP cleavage and DNA fragmentation occurred ([3]; staurosporin 1 μM, up to 24 hours): ≥ 6 h; treatment time after which cytosolic cytochrome c appeared ([5]; staurosporin 1 μM): 3 h

Q: How did the “caspase-3 processing/activation, PARP cleavage and DNA fragmentation” value [9] turn out when “Bax/p18: calpain-cleaved 18 kDa Bax fragment; the cloned Bax/p18 consists of amino acids 33-192 of Bax, expressed from transfected cDNA” was run?
A: The value was “detected”.

Q: What about the “release of cytochrome c” value [9] of the same molecule?
A: Its value is “induced”.

Q: And the “interaction with Bcl-2 (co-immunoprecipitation by anti-Bcl-2 antibody)” value [10]?
A: The value was “did not interact”.

Q: And the “cytochrome c-associated apoptotic events” value [11]?
A: Its value is “release of cytochrome c, cleavage of PARP and fragmentation of DNA”.

Q: “Bax/p21: full-length Bax protein, endogenous or expressed from transfected Bax-α cDNA” was tested. Which “release of cytochrome c” value [9] did it give?
A: The value was “not observed”.

Q: And the “interaction with Bcl-2 (co-immunoprecipitation by anti-Bcl-2 antibody)” value [10]?
A: Its value is “co-immunoprecipitated”.

Q: And the “cytochrome c-associated apoptotic events” value [11]?
A: Its value is “did not induce”.
